Reference: patent EP4778920A1, “INDAZOLONE COMPOUND, PREPARATION METHOD THEREFOR, PHARMACEUTICAL COMPOSITION, AND USE” (Shanghai Institute of Materia Medica, Chinese Academy of …, priority 2023, dated 2025)

Columns and labels:
MV-4-11 cells = assay: MV-4-11 cell proliferation inhibition (MTS assay); assay type: cell-based; settings: Homo sapiens, MV4-11, 168 h, 7 days incubation, MTS, read-out: MV-411 (IC50, Inhibitory Activity of Compounds on MV-4-11 Cell Proliferation)
Experimental: MV-4-11 cells were cultured in IMDM medium supplemented with 10% fetal bovine serum and collected. The cell concentration was diluted according to a 7-day incubation period, and 180 µL of cell suspension was added to each well of a 96-well plate, resulting in 2,000 cells per well. […] The test compounds were prepared from a 10 mM stock solution and serially diluted in a five-fold gradient, and 20 µL of the diluted compound solution was added to each compound-treated well (final DMSO concentration 0.2%). The cells were incubated in a 37 °C, 5% CO2 incubator for 7 days. After incubation, the reaction solution was prepared according to the MTS assay kit instructions (Promega, G5430), and 20 µL was added to each well. The plate was further incubated at 37 °C with 5% CO2 for 3-4 hours. The absorbance at 490 nm was measured using a microplate reader, and the absorbance at 690 nm was used as the background value. The final raw data were calculated as OD490 - OD690. […] The IC50 values for cell proliferation inhibition were determined using GraphPad Prism 5.0. Each experiment was repeated three times, and three parallel replicates were performed in each experiment to calculate the mean value and standard deviation.
Table 3. Inhibitory Activity of Compounds on MV-4-11 Cell Proliferation

MM.1S cells = assay: MM.1S cell proliferation inhibition (MTS assay); assay type: cell-based; settings: Homo sapiens, MM1.S, 168 h, 7 days incubation, read-out: MM1.S (IC50, Inhibitory Activity of Compounds on MM.1S Cell Proliferation)
Experimental: The cell concentration was diluted according to a 7-day incubation period, and 180 µL of cell suspension was added to each well of a 96-well plate, with 20,000 cells per well. […] The test compounds were prepared from a 10 mM stock solution and serially diluted in a 5-fold gradient, and 20 µL of the diluted solution was added to each compound-treated well (final DMSO concentration also 0.2%). The cells were incubated in a 37 °C, 5% CO2 incubator for 7 days. After incubation, the reaction solution was prepared according to the MTS assay kit instructions (Promega, G5430), and 20 µL was added to each well. The plate was incubated at 37 °C with 5% CO2 for 3-4 hours. The absorbance at 490 nm was measured using a microplate reader, and the absorbance at 690 nm was used as the background value. […] The IC50 values for cell proliferation inhibition were determined using GraphPad Prism 5.0. Each experiment was repeated three times, and three parallel replicates were performed in each experiment to calculate the mean value and standard deviation.
Inhibitory Activity of Compounds on MM.1S Cell Proliferation

Mino cells = assay: Mino cell proliferation inhibition (MTS assay); assay type: cell-based; settings: Homo sapiens, 72 h, 3 days incubation, read-out: Mino (IC50, Inhibitory Activity of Compounds on Mino Cell Proliferation)
Experimental: The cell concentration was diluted according to a 3-day incubation period, and 90 µL of cell suspension was added to each well of a 96-well plate, resulting in 8,000 cells per well. […] The test compounds were prepared from a 10 mM stock solution and serially diluted in a five-fold gradient. Similarly, 10 µL of the diluted compound solution was added to each compound-treated well (final DMSO concentration 0.2%).
The cells were incubated in a 37 °C, 5% CO2 incubator for 3 days. After incubation, the reaction solution was prepared according to the MTS assay kit instructions (Promega, G5430), and 20 µL was added to each well. The plate was further incubated at 37 °C with 5% CO2 for 3-4 hours. The absorbance at 490 nm was measured using a microplate reader, and the absorbance at 690 nm was used as the background value. The final raw data were calculated as OD490 - OD690. […] The IC50 values for cell proliferation inhibition were determined using GraphPad Prism 5.0. Each experiment was repeated three times, and three parallel replicates were performed in each experiment to calculate the mean value and standard deviation.
Table 2. Inhibitory Activity of Compounds on Mino Cell Proliferation

CRBN/DDB1 = CRBN/DDB1 (Homo sapiens, UniProt Q96SW2); assay: CRBN/DDB1 binding TR-FRET assay; settings: read-out: AVE_Inhibition% (1 µM)
Experimental: • 1. 0.1 µL of the reference solution was added to a 384-well assay plate. The final detection concentration was 100 µM, followed by 3-fold serial dilution for 10 points. • 2. 2.5 µL of CRBN/DDB1 was added to the 384-well plate and centrifuged at 1000 rpm for 1 minute. • 3. 2.5 µL of Thalidomide-BODIPY was added to the plate, centrifuged at 1000 rpm for 1 minute, and incubated at 25 °C for 15 minutes. • 4. 5 µL of His-Tb was added to the plate, centrifuged at 1000 rpm for 1 minute, and incubated at 25 °C for 60 minutes. • 5. The TR-FRET signal was measured using a BMG plate reader with a fluorescence ratio of 520/490 nm.
Table 4. Inhibition Rate of Compounds on CRBN/DDB1 Binding

CRBN/DDB1, sequence (Q96SW2 whole entry, species assumed): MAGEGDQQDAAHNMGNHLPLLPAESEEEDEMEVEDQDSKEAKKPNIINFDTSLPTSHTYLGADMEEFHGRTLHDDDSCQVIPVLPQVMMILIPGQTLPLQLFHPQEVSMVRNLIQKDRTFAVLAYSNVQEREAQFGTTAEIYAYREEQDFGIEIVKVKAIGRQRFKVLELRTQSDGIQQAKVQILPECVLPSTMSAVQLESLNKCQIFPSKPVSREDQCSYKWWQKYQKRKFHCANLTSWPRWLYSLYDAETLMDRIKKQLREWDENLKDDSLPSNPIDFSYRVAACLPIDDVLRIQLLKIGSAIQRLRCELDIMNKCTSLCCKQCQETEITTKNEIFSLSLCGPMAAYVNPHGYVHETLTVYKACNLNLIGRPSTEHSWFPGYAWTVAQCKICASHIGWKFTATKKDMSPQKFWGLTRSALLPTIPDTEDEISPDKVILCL
CRBN/DDB1, sequence (Q16531 whole entry partner, species assumed): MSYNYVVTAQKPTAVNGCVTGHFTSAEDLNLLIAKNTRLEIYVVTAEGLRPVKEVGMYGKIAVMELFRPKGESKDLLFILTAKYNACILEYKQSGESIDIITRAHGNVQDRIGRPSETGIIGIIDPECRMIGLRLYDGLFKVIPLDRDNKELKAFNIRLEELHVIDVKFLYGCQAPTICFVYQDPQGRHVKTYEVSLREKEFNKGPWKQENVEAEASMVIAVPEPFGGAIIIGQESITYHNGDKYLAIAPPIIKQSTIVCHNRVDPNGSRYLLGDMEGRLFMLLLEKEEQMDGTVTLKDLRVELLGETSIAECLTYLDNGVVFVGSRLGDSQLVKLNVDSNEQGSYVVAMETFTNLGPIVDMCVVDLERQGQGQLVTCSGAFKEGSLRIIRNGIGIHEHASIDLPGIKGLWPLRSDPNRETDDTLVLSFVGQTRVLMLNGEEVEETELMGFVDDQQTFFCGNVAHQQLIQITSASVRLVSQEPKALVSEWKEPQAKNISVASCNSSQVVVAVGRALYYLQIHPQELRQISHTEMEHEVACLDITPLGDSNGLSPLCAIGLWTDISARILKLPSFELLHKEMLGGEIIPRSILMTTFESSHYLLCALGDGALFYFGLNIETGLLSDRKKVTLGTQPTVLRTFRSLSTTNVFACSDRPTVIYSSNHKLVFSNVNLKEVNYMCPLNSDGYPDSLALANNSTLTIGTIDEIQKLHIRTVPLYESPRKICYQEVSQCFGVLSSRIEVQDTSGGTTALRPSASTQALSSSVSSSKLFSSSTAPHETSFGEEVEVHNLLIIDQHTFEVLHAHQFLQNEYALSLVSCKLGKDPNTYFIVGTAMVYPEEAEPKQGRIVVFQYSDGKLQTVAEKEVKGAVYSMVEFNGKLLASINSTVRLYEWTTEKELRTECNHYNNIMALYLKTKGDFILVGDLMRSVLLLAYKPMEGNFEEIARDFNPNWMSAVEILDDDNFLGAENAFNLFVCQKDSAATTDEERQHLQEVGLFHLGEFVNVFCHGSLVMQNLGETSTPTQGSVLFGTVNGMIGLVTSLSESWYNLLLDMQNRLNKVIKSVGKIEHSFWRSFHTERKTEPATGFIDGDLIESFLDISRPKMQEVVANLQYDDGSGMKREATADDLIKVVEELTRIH

Row | Compound | IC50 (MV-4-11 cells) | IC50 (MM.1S cells) | inhibition at 1 µM (CRBN/DDB1) | IC50 (Mino cells)
1 | C[C@H](NC(=O)c1ccc2c(=O)n(C3CCC(=O)NC3=O)[nH]c2c1)c1ccccc1 (stereo partly drawn) [Compound D33, 2-(2,6-dioxopiperidin-3-yl)-3-oxo-N-((S)-1-phenylethyl)-2,3-dihydro-1H-indazole-6-carboxamide] | > 20 µM | > 10 µM |  | > 10 µM
2 | C[C@@H](NC(=O)c1ccc2c(=O)n(C3CCC(=O)NC3=O)[nH]c2c1)c1ccc(Cl)cc1 (stereo partly drawn) [Compound D34, N-((R)-1-(4-chlorophenyl)ethyl)-2-(2,6-dioxopiperidin-3-yl)-3-oxo-2,3-dihydro-1H-indazole-6-carboxamide] | > 20 µM | > 10 µM |  | > 10 µM
3 | O=C1CCC(n2[nH]c3cc(C(=O)N[C@@H](c4ccccc4)C(F)(F)F)ccc3c2=O)C(=O)N1 (stereo partly drawn) [Compound D35, 2-(2,6-dioxopiperidin-3-yl)-3-oxo-N-((S)-2,2,2-trifluoro-1-phenylethyl)-2,3-dihydro-1H-indazole-6-carboxamide] | > 20 µM | > 10 µM |  | > 10 µM
4 | Cc1ccc(CNC(=O)c2ccc3c(=O)n(C4CCC(=O)NC4=O)[nH]c3c2)cc1 (stereo not drawn) [Compound D36, 2-(2,6-dioxopiperidin-3-yl)-N-(4-methylbenzyl)-3-oxo-2,3-dihydro-1H-indazole-6-carboxamide] | > 20 µM | > 10 µM |  | > 10 µM
5 | O=C1CCC(n2[nH]c3cc(C(=O)N[C@H](c4ccccc4)C(F)(F)F)ccc3c2=O)C(=O)N1 (stereo partly drawn) [Compound D37, 2-(2,6-dioxopiperidin-3-yl)-3-oxo-N-((R)-2,2,2-trifluoro-1-phenylethyl)-2,3-dihydro-1H-indazole-6-carboxamide] | > 20 µM | > 10 µM |  | > 10 µM
6 | C[C@H](NC(=O)c1ccc2c(=O)n(C3CCC(=O)NC3=O)[nH]c2c1)c1ccc(F)cc1F (stereo partly drawn) [Compound D38, N-((S)-1-(2,4-difluorophenyl)ethyl)-2-(2,6-dioxopiperidin-3-yl)-3-oxo-2,3-dihydro-1H-indazole-6-carboxamide] | > 20 µM | > 10 µM |  | > 10 µM
7 | C[C@H](NC(=O)c1ccc2c(=O)n(C3CCC(=O)NC3=O)[nH]c2c1)c1cccc(Cl)c1 (stereo partly drawn) [Compound D39, N-((S)-1-(3-chlorophenyl)ethyl)-2-(2,6-dioxopiperidin-3-yl)-3-oxo-2,3-dihydro-1H-indazole-6-carboxamide] | > 20 µM | > 10 µM |  | > 10 µM
8 | O=C1CCC(n2[nH]c3cc(C(=O)N[C@@H]4CCOc5ccc(Cl)cc54)ccc3c2=O)C(=O)N1 (stereo partly drawn) [Compound D41, N-((R)-6-chlorochroman-4-yl)-2-(2,6-dioxopiperidin-3-yl)-3-oxo-2,3-dihydro-1H-indazole-6-carboxamide] | > 20 µM | > 10 µM |  | > 10 µM
9 | Cc1cccc2c1OCC[C@H]2NC(=O)c1ccc2c(=O)n(C3CCC(=O)NC3=O)[nH]c2c1 (stereo partly drawn) [Compound D42, 2-(2,6-dioxopiperidin-3-yl)-N-((R)-8-methylchroman-4-yl)-3-oxo-2,3-dihydro-1H-indazole-6-carboxamide] | > 20 µM | > 10 µM |  | > 10 µM

Second part, led by results:

Row | IC50 (MV-4-11 cells) | IC50 (MM.1S cells) | inhibition at 1 µM (CRBN/DDB1) | Compound | IC50 (Mino cells)
10 | > 20 µM | < 0.2 µM | 50 to 90% | O=C1CC[C@H](n2[nH]c3c(OCc4ccc(CN5CCOCC5)cc4)cccc3c2=O)C(=O)N1 [Compound D1, (S)-3-(7-((4-(Morpholinomethyl)benzyl)oxy)-3-oxo-1,3-dihydro-2H-indazol-2-yl)piperidine-2,6-dione] | 1 to 10 µM
11 | < 0.2 µM | < 0.2 µM | > 90% | N#Cc1ccc(N2CCN(Cc3ccc(COc4cccc5c(=O)n([C@H]6CCC(=O)NC6=O)[nH]c45)cc3)CC2)c(F)c1 [Compound D2, (S)-4-(4-(4-(((2-(2,6-dioxopiperidin-3-yl)-3-oxo-2,3-dihydro-1H-indazol-7-yl)oxy)methyl)benzyl)piperazin-1-yl)-3-fluorobenzonitrile] | < 0.2 µM
12 | 1 to 20 µM | < 0.2 µM | > 90% | N#Cc1ccc(N2CCN(C(=O)c3ccc(COc4cccc5c(=O)n(C6CCC(=O)NC6=O)[nH]c45)cc3)CC2)c(F)c1 (stereo not drawn) [Compound D4] | < 0.2 µM
13 | > 20 µM | < 0.2 µM |  | Cn1c2c(OCc3ccc(CN4CCN(c5ccc(C#N)cc5F)CC4)cc3)cccc2c(=O)n1C1CCC(=O)NC1=O (stereo not drawn) [Compound D24, 4-(4-(4-(((2-(2,6-dioxopiperidin-3-yl)-1-methyl-3-oxo-2,3-dihydro-1H-indazol-7-yl)oxy)methyl)benzyl)piperazin-1-yl)-3-fluorobenzonitrile] | < 0.2 µM
14 | 1 to 20 µM | 1 to 10 µM |  | O=C1CC[C@H](n2[nH]c3c(OCc4cnc(-c5ccc(OC(F)(F)F)cc5)o4)cccc3c2=O)C(=O)N1 [Compound D26, (S)-3-(3-Oxo-7-((2-(4-(trifluoromethoxy)phenyl)oxazol-5-yl)methoxy)-1,3-dihydro-2H-indazol-2-yl)piperidine-2,6-dione] | 1 to 10 µM
15 | > 20 µM | 1 to 10 µM |  | O=C1CC[C@H](n2[nH]c3c(OCc4cnc(-c5ccc(Cl)cc5)o4)cccc3c2=O)C(=O)N1 [Compound D27, (S)-3-(7-((2-(4-chlorophenyl)oxazol-5-yl)methoxy)-3-oxo-1,3-dihydro-2H-indazol-2-yl)piperidine-2,6-dione] | > 10 µM
16 | > 20 µM | 1 to 10 µM |  | COc1ccc(-c2ncc(COc3cccc4c(=O)n(C5CCC(=O)NC5=O)[nH]c34)o2)cc1 (stereo not drawn) [Compound D28, 3-(7-((2-(4-methoxyphenyl)oxazol-5-yl)methoxy)-3-oxo-1,3-dihydro-2H-indazol-2-yl)piperidine-2,6-dione] | > 10 µM
17 | > 20 µM | > 10 µM |  | O=C1CCC(n2[nH]c3cc(C(=O)NCc4ccc(Cl)cc4)ccc3c2=O)C(=O)N1 (stereo not drawn) [Compound D29, N-(4-chlorobenzyl)-2-(2,6-dioxopiperidin-3-yl)-3-oxo-2,3-dihydro-1H-indazole-6-carboxamide] | > 10 µM
18 | 1 to 20 µM | > 10 µM |  | C[C@H](NC(=O)c1ccc2c(=O)n(C3CCC(=O)NC3=O)[nH]c2c1)c1ccc(Cl)cc1 (stereo partly drawn) [Compound D30, N-((S)-1-(4-chlorophenyl)ethyl)-2-(2,6-dioxopiperidin-3-yl)-3-oxo-2,3-dihydro-1H-indazole-6-carboxamide] | 1 to 10 µM
19 | > 20 µM | > 10 µM |  | Cc1ccc([C@H](C)NC(=O)c2ccc3c(=O)n(C4CCC(=O)NC4=O)[nH]c3c2)cc1 (stereo partly drawn) [Compound D31] | > 10 µM
20 | > 20 µM | > 10 µM |  | C[C@@H](NC(=O)c1ccc2c(=O)n(C3CCC(=O)NC3=O)[nH]c2c1)c1ccccc1 (stereo partly drawn) [Compound D32, 2-(2,6-dioxopiperidin-3-yl)-3-oxo-N-((R)-1-phenylethyl)-2,3-dihydro-1H-indazole-6-carboxamide] | > 10 µM
